Test results published in BindingDB's records for doi:10.1007/s00044-011-9594-4 (n/a, 2012).

Target: Telomerase reverse transcriptase (Homo sapiens, UniProt O14746)
Assay: Inhibition of telomerase (unknown origin)

Telomerase reverse transcriptase, sequence (O14746 whole entry): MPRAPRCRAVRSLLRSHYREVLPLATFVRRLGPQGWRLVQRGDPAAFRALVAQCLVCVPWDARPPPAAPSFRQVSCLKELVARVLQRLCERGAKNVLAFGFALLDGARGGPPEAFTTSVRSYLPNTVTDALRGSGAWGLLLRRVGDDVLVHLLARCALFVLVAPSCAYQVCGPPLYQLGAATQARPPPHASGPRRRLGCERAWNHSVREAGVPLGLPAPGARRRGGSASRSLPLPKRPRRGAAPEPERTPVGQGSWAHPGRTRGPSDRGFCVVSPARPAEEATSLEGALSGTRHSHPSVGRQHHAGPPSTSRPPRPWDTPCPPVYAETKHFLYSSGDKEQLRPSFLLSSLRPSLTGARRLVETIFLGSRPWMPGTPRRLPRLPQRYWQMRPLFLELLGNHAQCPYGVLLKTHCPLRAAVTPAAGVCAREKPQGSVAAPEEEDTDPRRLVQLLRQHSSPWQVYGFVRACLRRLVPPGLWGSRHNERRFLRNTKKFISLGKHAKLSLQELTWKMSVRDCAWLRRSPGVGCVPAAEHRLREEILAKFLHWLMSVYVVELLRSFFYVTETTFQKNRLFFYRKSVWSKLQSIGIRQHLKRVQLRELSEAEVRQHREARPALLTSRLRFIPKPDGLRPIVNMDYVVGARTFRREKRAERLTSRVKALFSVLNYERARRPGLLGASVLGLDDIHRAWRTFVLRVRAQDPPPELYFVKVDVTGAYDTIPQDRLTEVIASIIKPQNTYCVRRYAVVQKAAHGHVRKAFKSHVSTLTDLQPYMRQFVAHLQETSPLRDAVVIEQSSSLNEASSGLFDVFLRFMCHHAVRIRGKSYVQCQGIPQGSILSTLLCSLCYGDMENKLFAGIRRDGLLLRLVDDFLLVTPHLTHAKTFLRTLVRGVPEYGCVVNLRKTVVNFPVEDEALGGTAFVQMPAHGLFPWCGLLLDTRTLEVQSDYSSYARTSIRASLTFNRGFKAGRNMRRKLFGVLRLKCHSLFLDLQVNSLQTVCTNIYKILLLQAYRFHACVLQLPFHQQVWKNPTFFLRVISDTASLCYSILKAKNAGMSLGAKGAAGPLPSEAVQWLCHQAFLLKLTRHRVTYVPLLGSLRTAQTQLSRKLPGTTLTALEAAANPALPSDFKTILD

IC50 | Compound
5.01 nM | CC1=C2NC(=C3CSC(=N3)c3coc(n3)-c3coc(n3)-c3coc(n3)-c3coc(n3)-c3coc(n3)-c3nc2oc3C)O1 [telomestatin]
28.2 nM | CN(C)CCCNCc1ccc2nc3ccc4cc5cc(CNCCCN(C)C)ccc5nc4c3cc2c1
40.8 nM | CSc1nc(Nc2ccc3nc(C)cc(N(C)C)c3c2)nc(Nc2ccc3nc(C)cc(N(C)C)c3c2)n1
